Experimental data as given in US20240368173A1, “TRICYCLIC GPR65 MODULATORS” (PATHIOS THERAPEUTICS LIMITED, priority 2021, published 2024).
Read-outs that look alike come from different tables or passages of the source.

Molecular target: human recombinant GPR65 (Homo sapiens, UniProt Q8IYL9)
Test: Human GPR65 cAMP HTRF antagonist assay
Assay type: cell-based
Outline: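 Antagonism measured as suppression of the cAMP rise when pH is dropped to 7.2 (control wells pH 7.9) in 1321N1 cells stably carrying human GPR65. Cells in KRH with 1 mM IBMX and 200 μM EDTA saw compound 30 min, then acid stimulation 30 min; HTRF cAMP detection, normalised, 4-parameter logistic IC50.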

[1] = 1321N1-hrGPR65 cells, cAMP HTRF, assay pH 7.2, read-out: hGPR65 IC50 (Activity of selected compounds according to the invention)

Chain of human recombinant GPR65 (Q8IYL9 whole entry): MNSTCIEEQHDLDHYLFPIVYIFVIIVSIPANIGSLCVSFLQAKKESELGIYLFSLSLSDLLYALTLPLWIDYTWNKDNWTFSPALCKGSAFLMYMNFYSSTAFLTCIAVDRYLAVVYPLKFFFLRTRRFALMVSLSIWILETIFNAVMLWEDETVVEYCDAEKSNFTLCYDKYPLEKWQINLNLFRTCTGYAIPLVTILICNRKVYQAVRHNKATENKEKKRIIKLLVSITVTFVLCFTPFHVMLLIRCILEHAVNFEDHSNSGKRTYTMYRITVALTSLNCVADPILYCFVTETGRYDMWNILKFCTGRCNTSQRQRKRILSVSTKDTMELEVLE

SMILES	IC50 [1]	IC50
O=C(Nc1cc(Cl)c(C2(O)CC2)cc1F)N1[C@H]2CC[C@@H]1c1ccnc(F)c1C2 [Compound 68, (5R,8S)-N-(5-Chloro-2-fluoro-4-(1-hydroxycyclopropyl)phenyl)-1-fluoro-6,7,8,9-tetrahydro-5H-5,8-epiminocyclohepta[c]pyridine-10-carboxamide]	0.5 to 5 µM	
O=C(Nc1cc(Cl)c(-c2ccc(OCCN3CCCCC3)nc2)cc1F)N1[C@H]2CC[C@@H]1c1ccnc(F)c1C2 [Compound 220, (5R,8S)-N-(5-Chloro-2-fluoro-4-(6-(2-(piperidin-1-yl)ethoxy)pyridin-3-yl)phenyl)-1-fluoro-6,7,8,9-tetrahydro-5H-5,8-epiminocyclohepta[c]pyridine-10-carboxamide]		< 0.5 µM
O=C(Nc1cc(F)c(-c2ccc(F)nc2)cc1F)N1[C@H]2CC[C@@H]1c1c[nH]c(=O)cc1C2 [Compound 243, (6S,9R)-N-(2,5-Difluoro-4-(6-fluoropyridin-3-yl)phenyl)-3-oxo-3,5,6,7,8,9-hexahydro-2H-6,9-epiminocyclohepta[c]pyridine-10-carboxamide]		< 0.5 µM
O=C(Nc1cc(Cl)c(C(F)(F)F)cc1F)N1C2CCC1[C@H](F)c1c2ccnc1F (mixture of isomers) [Compound 157, (±)-(9R)—N-(5-Chloro-2-fluoro-4-(trifluoromethyl)phenyl)-1,9-difluoro-6,7,8,9-tetrahydro-5H-5,8-epiminocyclohepta[c]pyridine-10-carboxamide]		< 0.5 µM
CC(C)Oc1cc(-c2cc(F)c(NC(=O)N3[C@H]4CC[C@@H]3c3n[nH]c(=O)cc3C4)cc2Cl)ccn1 [Compound 218, (6S,9R)-N-(5-Chloro-2-fluoro-4-(2-isopropoxypyridin-4-yl)phenyl)-3-oxo-3,5,6,7,8,9-hexahydro-2H-6,9-epiminocyclohepta[c]pyridazine-10-carboxamide]		< 0.5 µM
O=C(Nc1cc(Cl)c(-c2cnn(-c3ccncc3)c2)cc1F)N1[C@H]2CC[C@@H]1c1n[nH]c(=O)cc1C2 [Compound 145, (6S,9R)-N-(5-Chloro-2-fluoro-4-(1-(pyridin-4-yl)-1H-pyrazol-4-yl)phenyl)-3-oxo-3,5,6,7,8,9-hexahydro-2H-6,9-epiminocyclohepta[c]pyridazine-10-carboxamide]		< 0.5 µM
O=C(Nc1cc(Cl)c(-c2ccc(N3CCOCC3)nc2)cc1F)N1[C@H]2CC[C@@H]1c1n[nH]c(=O)cc1C2 [Compound 340, (6S,9R)-N-(5-Chloro-2-fluoro-4-(6-morpholinopyridin-3-yl)phenyl)-3-oxo-3,5,6,7,8,9-hexahydro-2H-6,9-epiminocyclohepta[c]pyridazine-10-carboxamide]		< 0.5 µM
O=C(Nc1cc(I)c(Cl)cc1F)N1[C@H]2CC[C@@H]1c1c[nH]c(=O)cc1C2 [Compound 80, (6S,9R)-N-(4-Chloro-2-fluoro-5-iodophenyl)-3-oxo-3,5,6,7,8,9-hexahydro-2H-6,9-epiminocyclohepta[c]pyridine-10-carboxamide]		0.5 to 5 µM
O=C(Nc1ccc(C(F)(F)F)c(Br)c1)N1[C@H]2CC[C@@H]1c1n[nH]c(=O)cc1C2 [Compound 31, (6S,9R)-N-(3-Bromo-4-(trifluoromethyl)phenyl)-3-oxo-3,5,6,7,8,9-hexahydro-2H-6,9-epiminocyclohepta[c]pyridazine-10-carboxamide]		< 0.5 µM
COc1ccc(-c2cc(F)c(NC(=O)N3[C@H]4CC[C@@H]3c3n[nH]c(=O)cc3C4)cc2Cl)cn1 [Compound 171, (6S,9R)-N-(5-Chloro-2-fluoro-4-(6-methoxypyridin-3-yl)phenyl)-3-oxo-3,5,6,7,8,9-hexahydro-2H-6,9-epiminocyclohepta[c]pyridazine-10-carboxamide]		< 0.5 µM
CO[C@H]1C[C@@H](Oc2ccc(NC(=O)N3[C@H]4CC[C@@H]3c3ccnc(F)c3C4)cc2Cl)C1 [Compound 72, (5R,8S)-N-(3-Chloro-4-((1s,3S)-3-methoxycyclobutoxy)phenyl)-1-fluoro-6,7,8,9-tetrahydro-5H-5,8-epiminocyclohepta[c]pyridine-10-carboxamide]		0.5 to 5 µM
O=C(Nc1cc(Cl)c(-c2cn[nH]c2)cc1F)N1[C@H]2CC[C@@H]1c1n[nH]c(=O)cc1C2 [Compound 119, (6S,9R)-N-(5-Chloro-2-fluoro-4-(1H-pyrazol-4-yl)phenyl)-3-oxo-3,5,6,7,8,9-hexahydro-2H-6,9-epiminocyclohepta[c]pyridazine-10-carboxamide]	> 5 µM	
O=C(Nc1cc(Cl)c(-c2ccc3nonc3c2)cc1F)N1[C@@H]2CC[C@H]1C(F)(F)c1c2ccnc1F [Compound 330, (5R,8S)-N-(4-(Benzo[c][1,2,5]-oxadiazol-5-yl)-5-chloro-2-fluorophenyl)-1,9,9-trifluoro-6,7,8,9-tetrahydro-5H-5,8-epiminocyclohepta[c]pyridine-10-carboxamide]		< 0.5 µM
O=C(Nc1cc(Cl)c(C(F)(F)F)cc1F)N1C2CCC1C(F)c1c2ccnc1F (mixture of isomers) [Compound 226, (±, 9-endo)-N-(5-chloro-2-fluoro-4-(trifluoromethyl)phenyl)-1,9-difluoro-6,7,8,9-tetrahydro-5H-5,8-epiminocyclohepta[c]pyridine-10-carboxamide]		< 0.5 µM
COc1ccc(-c2cc(F)c(NC(=O)N3[C@H]4CC[C@@H]3c3ccnc(F)c3C4)cc2Cl)c(F)n1 [Compound 214, (5R,8S)-N-(5-Chloro-2-fluoro-4-(2-fluoro-6-methoxypyridin-3-yl)phenyl)-1-fluoro-6,7,8,9-tetrahydro-5H-5,8-epiminocyclohepta[c]pyridine-10-carboxamide]		< 0.5 µM
N#Cc1cnc(F)c2c1[C@H]1CC[C@@H](C2)N1C(=O)Nc1cc(Cl)c(Cl)cc1F [Compound 160, (5R,8S)-4-Cyano-N-(4,5-dichloro-2-fluorophenyl)-1-fluoro-6,7,8,9-tetrahydro-5H-5,8-epiminocyclohepta[c]pyridine-10-carboxamide]	0.5 to 5 µM	
CN(C)Cc1cccc(-c2cc(F)c(NC(=O)N3[C@H]4CC[C@@H]3c3n[nH]c(=O)cc3C4)cc2Cl)c1 [Compound 133, (6S,9R)-N-(2-Chloro-3′-((dimethylamino)methyl)-5-fluoro-[1,1′-biphenyl]-4-yl)-3-oxo-3,5,6,7,8,9-hexahydro-2H-6,9-epiminocyclohepta[c]pyridazine-10-carboxamide]	0.5 to 5 µM	
O=C(Nc1cc(Cl)c(-c2ccc(OC(CF)CF)nc2)cc1F)N1[C@H]2CC[C@@H]1c1n[nH]c(=O)cc1C2 [Compound 307, (6S,9R)-N-(5-Chloro-4-(6-((1,3-difluoropropan-2-yl)oxy)pyridin-3-yl)-2-fluorophenyl)-3-oxo-3,5,6,7,8,9-hexahydro-2H-6,9-epiminocyclohepta[c]pyridazine-10-carboxamide]		< 0.5 µM
